Assay results reported in patent publication US11319318B2, “Pyridinones and isoquinolinones as inhibitors of the bromodomain BRD9” (Boehringer Ingelheim International GmbH, priority 2015, dated 2022).

These compounds were tested against T1, bromodomain of BRD9 (GST-BRD9 aa 130-259) / H3 K9/14/18/23Ac(1-28) peptide (Homo sapiens, UniProt Q9H8M2) (assay: BRD9-H3 tetra-acetylated Peptide Inhibition AlphaScreen).
T1 construct: The protein corresponding to amino acids 130-259 that contains the bromodomain of BRD9; made in house; host or cells: E. coli
T1 sequence (Q9H8M2 130-259): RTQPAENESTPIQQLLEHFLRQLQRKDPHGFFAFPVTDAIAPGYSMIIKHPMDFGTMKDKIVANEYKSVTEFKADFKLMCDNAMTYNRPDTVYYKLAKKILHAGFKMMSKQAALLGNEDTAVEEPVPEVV
Assay type: binding

IC50 [nM]	SMILES
289	CCc1cc(-c2cc(C)c(=O)n(C)c2)cc(OC)c1C(O)CC (stereo not drawn) [Compound I-71]
179	CCC(CC)(c1ccc(-c2cc(C)c(=O)n(C)c2)cc1OC)N1CCN(C)CC1 [Compound I-61]
128	CNCCN(C)S(=O)(=O)c1cc(OC)c(-c2cc(C)c(=O)n(C)c2C)cc1OC [Compound I-155]
409	COc1cc(-c2cc(C)c(=O)n(C)c2)ccc1C(=O)N1C[C@@H]2CC1CN2 [Compound I-76]
231	Cc1cc(-c2ccc(CN3CCN(C)CC3)c(N(C)C)c2)cn(C)c1=O [Compound I-204, 5-[3-Dimethylamino-4-(4-methyl-piperazin-1-ylmethyl)-phenyl]-1,3-dimethyl-1H-pyridin-2-one]
95	COc1cc(-c2cn(C)c(=O)c3[nH]ccc23)ccc1C(=O)N1CCN(C)CC1 [III-7]
550	Cc1cc(C(=O)N2CCNCC2)ccc1-c1cc(C)c(=O)n(C)c1 [Compound I-163]
223	Cc1cc(-c2cc(C)c(=O)n(C)c2)ccc1S(=O)(=O)NCCN(C)C [Compound I-68]
322	COc1cc(-c2cc(C)c(=O)n(C)c2C)cc(OC)c1CN1CCN(C)CC1 [Compound I-132]
1080	Cc1cc(-c2ccc(C(C)N3CCOCC3)cc2)cn(C)c1=O (stereo not drawn) [Compound I-10]
152	COc1cc(-c2cn(C)c(=O)c(C)c2C)ccc1CN1C[C@@H]2CC1CN2C [Compound I-108]
5	COc1cc(-c2cn(C)c(=O)c3cncnc23)cc(OC)c1CN1CC(N)C1 [II-30, 8-[4-(3-Amino-azetidin-1-ylmethyl)-3,5-dimethoxy-phenyl]-6-methyl-6H-pyrido[4,3-d]pyrimidin-5-one]
950	Cc1cc(-c2ccc3c(c2)CNCC3)cn(C)c1=O [Compound I-90]
26	COc1cc(S(=O)(=O)NC2CNC2)c(OC)cc1-c1cn(C)c(=O)c(C)c1C [Compound I-151]
1380	Cn1cc(-c2ccc(C(=O)N3CCNCC3)cc2)c2cccnc2c1=O [II-14]
1590	Cc1cc(-c2ccc(S(=O)(=O)C(C)C)cc2)cn(C)c1=O [Compound I-13]
5320	Cc1c(-c2ccc(C(N)=O)cc2)cn(C)c(=O)c1C [Compound I-213]
38	COc1cc(S(=O)(=O)NC2CNC2)c(OC)cc1-c1cc(C)c(=O)n(C)c1C [Compound I-154]
33	CNC1CN(Cc2c(OC)cc(-c3cc(C)c(=O)n(C)c3)cc2OC)C1 [Compound I-146]
218	Cc1cc(-c2ccc3c(c2)CN(C)C3)cn(C)c1=O [Compound I-209, 1,3-Dimethyl-5-(2-methyl-2,3-dihydro-1H-isoindol-5-yl)-1H-pyridin-2-one]
142	COCc1c(OC)cc(-c2cc(C)c(=O)n(C)c2)cc1OC [Compound I-59]
361	Cc1cc(-c2ccc(C(=O)C3CCNCC3)cc2)cn(C)c1=O [Compound I-73]
132	COc1cc(-c2cc(C)c(=O)n(C)c2)ccc1CN1CCN(Cc2cccc(O)c2)CC1 [Compound I-200]
268	COc1cc(-c2cc(C)c(=O)n(C)c2)cc(C)c1CN [Compound I-202, 5-(4-Aminomethyl-3-methoxy-5-methyl-phenyl)-1,3-dimethyl-1H-pyridin-2-one]
1400	Cc1cc(-c2cn(C)c(=O)c(C)c2C)ccc1C(=O)N1CCN(C)CC1 [Compound I-117]

IC50 [nM]	SMILES
1550	CNS(=O)(=O)c1ccc(-c2cc(C)c(=O)n(C)c2)cc1 [Compound I-12]
215	COc1cc(-c2cc(C)c(=O)n(C)c2)ccc1C1(N2CCN(C)CC2)CC1 [Compound I-67]
326	Cc1cc(-c2ccc(S(=O)(=O)NCCN(C)C)c(OC(F)(F)F)c2)cn(C)c1=O [Compound I-7]
870	Cc1cc(-c2ccc(CN3CCCC3)cc2)cn(C)c1=O [Compound I-180]
23	COc1cc(-c2cn(C)c(=O)c3cncnc23)cc(OC)c1CNC1CNC1 [II-33]
163	COc1cc(-c2cc(C)c(=O)n(C)c2C)ccc1C1(N(C)C)CCC1 [Compound I-121]
502	CCOc1cc(-c2cc(C)c(=O)n(C)c2)ccc1CN1CC[N+](C)(CC)CC1 [Compound I-81]
26	COc1cc(-c2cc(C)c(=O)n(C)c2)ccc1COC1CNC1 [Compound I-144]
89	CCc1cc(-c2cc(C)c(=O)n(C)c2)cc(OC)c1C(=O)N1CCNCC1 [Compound I-157, 5-[3-Ethyl-5-methoxy-4-(piperazine-1-carbonyl)-phenyl]-1,3-dimethyl-1H-pyridin-2-one]
4300	Cc1cc(-c2cc(C)c(=O)n(C)c2)c(C)cc1CN1CCN(C)CC1 [Compound I-187]
230	COc1cc(-c2cc(I)c(=O)n(C)c2)ccc1C(=O)N1CCN(C)CC1 [Compound I-166]
235	Cc1c(-c2ccc(C(=O)N3CCNCC3)cc2)cc(I)c(=O)n1C [Compound I-22]
203	COc1cc(-c2cc(C)c(=O)n(C)c2)cc(OC)c1CN1CCN(C)CC1 [Compound I-63]
29	COc1cc(-c2cc(C)c(=O)n(C)c2C)ccc1COC1CNC1 [Compound I-153]
103	Cc1c(-c2ccc3c(c2)CNC3)cn(C)c(=O)c1C [Compound I-106]
371	COc1cc(-c2cc(C)c(=O)n(C)c2)ccc1S(=O)(=O)N1CC(O)C1 [Compound I-74]
1220	Cc1cc(-c2cccc(NS(C)(=O)=O)c2)cn(C)c1=O [Compound I-31, N-[3-(1,5-Dimethyl-6-oxo-1,6-dihydro-pyridin-3-yl)-phenyl]-methanesulfonamide]
303	COc1cc(-c2cc(C)c(=O)n(C)c2C)c(OC)cc1CN1CCN(C)CC1 [Compound I-131]
121	COc1cc(-c2cc(C)c(=O)n(C)c2)ccc1CN1C[C@@H]2CC1CN2 [Compound I-54]
521	Cc1cc(-c2cc(C)c(=O)n(C)c2)ccc1S(=O)(=O)N1CCN(C)CC1 [Compound I-83]
609	COc1cc(-c2cn(C)c(=O)c3ccncc23)c(OC)cc1CN(C)C [II-24]
193	COc1cc(-c2cn(C)c(=O)c(C)c2C)ccc1CN1C[C@@H]2CC1CN2 [Compound I-109]
16300	CN1CCN(C(=O)c2ccc(-c3nn(C)c(=O)c4ccccc34)cc2)CC1 [II-17]
55	COc1cc(-c2cc(C)c(=O)n(C)c2C)ccc1CN1CC(O)C1 [Compound I-119]
916	CN(C)Cc1ccc(-c2cn(C)c(=O)c3ccccc23)cc1 [II-5]

IC50 [nM]	SMILES
114	COc1cc(-c2cc(C)c(=O)n(C)c2)cc(OC)c1CN(C)C1CN(C)C1 [Compound I-208, 5-(3,5-Dimethoxy-4-{[methyl-(1-methyl-azetidin-3-yl)-amino]-methyl}-phenyl)-1,3-dimethyl-1H-pyridin-2-one]
981	Cc1cc(-c2cn(C)c(=O)c3ccccc23)ccc1C(=O)N1CCN(C)CC1 [II-45]
284	Cc1cc(-c2ccc(C(=O)C3CCNCC3)cc2)c(C)n(C)c1=O [Compound I-129]
124	COc1cc(-c2cc(C)c(=O)n(C)c2)c(OC)cc1CN1CC(O)C1 [Compound I-55]
211	Cc1cc(-c2ccc(S(=O)(=O)N3CCNCC3)cc2)cn(C)c1=O [Compound I-64]
62	COc1cc(-c2cn(C)c(=O)c3[nH]ccc23)ccc1CN1C[C@@H]2CC1CN2C [III-4]
32	COc1cc(-c2cc(C)c(=O)n(C)c2)cc(OC)c1CNC1CNC1 [Compound I-145]
3210	Cc1cc(-c2ccc(C(=O)N3CCN(C)CC3)cc2)c(C)n(C)c1=O [Compound I-214]
515	COc1cc(-c2cc(C)c(=O)n(C)c2)ccc1S(=O)(=O)N1CCN(C)CC1 [Compound I-82]
468	Cc1cc(-c2ccc3c(c2)CCN(C)C3)c(C)n(C)c1=O [Compound I-211]
46	COc1cc(-c2cn(C)c(=O)c3[nH]ccc23)ccc1CN1C[C@@H]2CC1CN2 [III-3]
10	COc1cc(-c2cc(C)c(=O)n(C)c2C)cc(OC)c1CN1CC(O)C1 [Compound I-118]
1000	CNCc1ccc(-c2cc(C)c(=O)n(C)c2)cc1 [Compound I-181]
2360	Cc1cc(-c2cccc(C3CCCCN3)c2)cn(C)c1=O (stereo not drawn) [Compound I-98]
42	COc1cc(-c2cn(C)c(=O)c3cncnc23)cc(OC)c1CN1CC(O)C1 [II-11]
97	COc1cc(-c2cc(C)c(=O)n(C)c2)ccc1C1(N(C)C)CC1 [Compound I-53]
2540	Cc1cc(-c2cccc(CN(C)C)c2)cn(C)c1=O [Compound I-17]
145	CNCCN(C)S(=O)(=O)c1cc(OC)c(-c2cn(C)c(=O)c(C)c2C)cc1OC [Compound I-152]
1190	Cc1cc(-c2cn(C)c(=O)c3ccccc23)ccc1C(=O)N(C)C [II-47]
458	Cc1cc(-c2ccc(CN3CCN(C)CC3)c(O)c2)cn(C)c1=O [Compound I-194, 5-[3-Hydroxy-4-(4-methyl-piperazin-1-ylmethyl)-phenyl]-1,3-dimethyl-1H-pyridin-2-one]
178	CN(C)Cc1ccc(-c2cn(C)c(=O)c3ccc(Cn4cccn4)cc23)cc1 [II-20]
479	COc1cc(-c2cc(C)c(=O)n(C)c2)ccc1CN1CC(N(C)C)C1 [Compound I-206, 5-[4-(3-Dimethylamino-azetidin-1-ylmethyl)-3-methoxy-phenyl]-1,3-dimethyl-1H-pyridin-2-one]
1920	Cc1cc(-c2cc(C)c(=O)n(C)c2C)ccc1C(=O)N1CCN(C)CC1 [Compound I-136]
71	COc1cc(-c2cc(C)c(=O)n(C)c2)ccc1CN1CCN(Cc2cccc(N)c2)CC1 [Compound I-198, 5-{4-[4-(3-Amino-benzyl)-piperazin-1-ylmethyl]-3-methoxy-phenyl}-1,3-dimethyl-1H-pyridin-2-one]

SMILES	IC50 [nM]
COc1cc(-c2cc(C)c(=O)n(C)c2C)c(OC)cc1CN1CCNCC1 [Compound I-156]	1780
